# Patent US10167270B2, “Substituted quinazoline compounds and uses thereof for modulating glucocerebrosidase activity” (Northwestern University, priority 2015, dated 2019)
# Target: Glucocerebrosidase (Homo sapiens (Human), UniProt P04062)
# Test: Glucocerebrosidase activity assay with blue substrate (4MU-Glc)
# Assay type: biochemical
# Conditions: not given
# Procedure: The compounds in DMSO solution 0.5 μL/well were transferred to a black 96-well plate. The final titration was 24 nM to 50 μM, 12 concentrations, 2 times dilution. […] After 5 min of incubation at room temperature, the enzyme reaction was initiated by the addition of 33 μL/well blue substrate. Final concentrations of the blue substrate (4MU-Glc) was 1.5 mM. The blue substrate reaction was terminated by the addition of 33 μL/well stop solution (1 M NaOH and 1 M glycine mixture, pH 10) after 30 min of incubation at 37° C. The fluorescence was then measured in the Biotek Synergy H1 multi-mode plate reader with Ex=365 nm and Em=440 nm.
# Additional compounds were prepared and tested according to the procedures provided in the examples above.
# Additional substituted quinazoline compounds were prepared and tested according to the procedures provided in the examples above.
# Sequence of Glucocerebrosidase (P04062 40-536): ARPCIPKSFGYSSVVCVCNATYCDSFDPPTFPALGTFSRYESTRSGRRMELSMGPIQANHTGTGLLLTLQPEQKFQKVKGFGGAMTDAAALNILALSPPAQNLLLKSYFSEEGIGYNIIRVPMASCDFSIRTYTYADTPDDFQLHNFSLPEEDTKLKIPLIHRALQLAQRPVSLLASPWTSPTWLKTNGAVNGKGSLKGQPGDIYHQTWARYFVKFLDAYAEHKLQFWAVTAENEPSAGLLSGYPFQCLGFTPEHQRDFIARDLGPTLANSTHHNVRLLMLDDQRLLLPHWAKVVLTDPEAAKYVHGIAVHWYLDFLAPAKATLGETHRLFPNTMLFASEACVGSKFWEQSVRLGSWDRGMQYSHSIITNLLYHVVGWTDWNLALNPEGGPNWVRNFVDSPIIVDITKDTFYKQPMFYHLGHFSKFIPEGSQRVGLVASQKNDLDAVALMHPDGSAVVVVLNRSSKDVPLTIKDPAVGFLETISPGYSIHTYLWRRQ
row,Structure (SMILES),Activity AC50 or IC50 (activator)
1,CN(CCCCCCCCCCN(C)c1nc(-c2cccnc2)nc2ccccc12)c1nc(-c2cccnc2)nc2ccccc12 [compound 112],Weak activator

# Same assay, conditions: direction not given
row,Activity AC50 or IC50,Structure (SMILES)
1,Inactive,CN(CCOc1ccccc1)c1nc(-c2cccs2)nc2ccccc12 [compound 125]
2,Inactive,CN(CCOc1ccccc1)c1nc(-c2ccsc2)nc2ccccc12 [compound 126]
3,Inactive,CN(CCOc1ccccc1)c1nc(-c2ccc(F)cc2)nc2ccccc12 [compound 129]
4,Inactive,CN(CCOc1ccccc1)c1nc(-c2ccccc2)nc2ccccc12 [compound 131]
5,Inactive,CN(CCOc1ccccc1)c1nc(-c2cccc(F)c2)nc2ccccc12 [compound 132]

# Same assay, conditions: marked (act), activator, AC50
row,IC50 or AC50 (act),Structure (SMILES)
1,Weak (act),Nc1nc(-c2cccnc2)nc2ccccc12 [compound 35]
2,Weak (act),c1ccc(C2CCCN(c3nc(-c4cccnc4)nc4ccccc34)C2)cc1 (stereo not drawn) [compound 82]

# Continued, compound first:
row,Structure (SMILES),IC50 or AC50 (act)
1,[N-]=[N+]=Nc1c(F)c(F)c(CNc2nc(-c3cccnc3)nc3ccccc23)c(F)c1F [compound 37],Weak (act)
2,CN1CCN(c2ccc(C(=O)N3CCN(c4nc(-c5cccnc5)nc5ccccc45)CC3)cc2)CC1 [compound 38],Weak (act)
3,c1ccc(Nc2nc(-c3cccnc3)nc3ccccc23)cc1 [compound 50],Weak (act)
4,CC(C)(C)Nc1nc(-c2cccnc2)nc2ccccc12 [compound 54],Weak (act)

# Same assay, conditions: marked (act), activator, AC50; read-out: IC50 or AC50 (act)
row,Structure (SMILES),AC50
1,CN(Cc1nc2ccccc2[nH]1)c1nc(-c2cccnc2)nc2ccccc12 [compound 15],8910 nM
2,c1cncc(-c2nc(NCCc3c[nH]c4ccccc34)c3ccccc3n2)c1 [compound 72],1280 nM

# Same assay, conditions: marked (inh), inhibitor
row,IC50 or AC50 (inh),Structure (SMILES)
1,Weak (inh),CN1CCC(Nc2nc(-c3cccnc3)nc3ccccc23)CC1 [compound 45]
2,Weak (inh),CN(c1nc(-c2cccnc2)nc2ccccc12)[C@@H]1CCc2ccccc2C1 [compound 88]

# Same assay, conditions: marked (inh), inhibitor; read-out: IC50 or AC50 (inh)
row,IC50,Structure (SMILES)
1,7 nM,c1cncc(-c2nc(NC3Cc4ccccc4C3)c3ccccc3n2)c1 [compound 1]
2,2150 nM,CN(c1nc(-c2cccnc2)nc2ccccc12)C1Cc2ccccc2C1 [compound 2]
3,7940 nM,c1cncc(-c2nc(NCC3COc4ccccc4O3)c3ccccc3n2)c1 (stereo not drawn) [compound 20]
4,2240 nM,O=C(C1COc2ccccc2O1)N1CCN(c2nc(-c3cccnc3)nc3ccccc23)CC1 (stereo not drawn) [compound 29]
5,31600 nM,c1ccc(CN2CCC(Nc3nc(-c4cccnc4)nc4ccccc34)CC2)cc1 [compound 44]
6,1780 nM,c1ccc(CCCNc2nc(-c3cccnc3)nc3ccccc23)cc1 [compound 52]
7,1580 nM,c1ccc(CCCCNc2nc(-c3cccnc3)nc3ccccc23)cc1 [compound 53]
8,141 nM,Fc1cccc(CCNc2nc(-c3cccnc3)nc3ccccc23)c1 [compound 55]
9,112 nM,c1ccc(CCNc2nc(-c3cccnc3)nc3ccccc23)cc1 [compound 60]
10,891 nM,c1cncc(-c2nc(NC3CCc4ccccc43)c3ccccc3n2)c1 (stereo not drawn) [compound 67]
11,1120 nM,c1ccc(CCNc2nc(-c3cccnc3)nc3ccccc23)nc1 [compound 69]
12,5010 nM,c1cncc(CCNc2nc(-c3cccnc3)nc3ccccc23)c1 [compound 70]
13,1780 nM,Cc1ccc(CCNc2nc(-c3cccnc3)nc3ccccc23)cc1 [compound 73]
14,1580 nM,CN(c1nc(-c2cccnc2)nc2ccccc12)C1CCc2ccccc2C1 (stereo not drawn) [compound 75]
15,500 nM,CN(c1nc(-c2cccnc2)nc2ccccc12)[C@H]1CCc2ccccc2C1 [compound 84]
16,168 nM,Ic1ccc2c(c1)CC(Nc1nc(-c3cccnc3)nc3ccccc13)C2 (stereo not drawn) [compound 89]

# Further lines, the compound ahead of its results:
row,Structure (SMILES),IC50
1,c1cncc(-c2nc(N3CCNCC3)c3ccccc3n2)c1 [compound 23],35500 nM
2,c1cncc(-c2nc(NC3CCCC3)c3ccccc3n2)c1 [compound 39],790 nM
3,c1cncc(-c2nc(NC3CCCCC3)c3ccccc3n2)c1 [compound 40],177 nM
4,CC(C)N1CCC(Nc2nc(-c3cccnc3)nc3ccccc23)CC1 [compound 41],35500 nM
5,c1cncc(-c2nc(NC3CC3)c3ccccc3n2)c1 [compound 42],39800 nM
6,c1cncc(-c2nc(NC3CCC3)c3ccccc3n2)c1 [compound 43],4470 nM
7,CC1CCCCC1Nc1nc(-c2cccnc2)nc2ccccc12 (stereo not drawn) [compound 48],89 nM
8,c1ccc(CNc2nc(-c3cccnc3)nc3ccccc23)cc1 [compound 51],7080 nM
9,c1cncc(-c2nc(NCC3CCCCC3)c3ccccc3n2)c1 [compound 57],354 nM
10,c1cncc(-c2nc(NC3CCCCCC3)c3ccccc3n2)c1 [compound 58],63 nM
11,c1cncc(-c2nc(NCCC3CCCCC3)c3ccccc3n2)c1 [compound 63],282 nM
12,FC1(F)CCC(Nc2nc(-c3cccnc3)nc3ccccc23)CC1 [compound 65],316 nM
13,c1cncc(-c2nc(NC3CCCc4ccccc43)c3ccccc3n2)c1 (stereo not drawn) [compound 68],1120 nM
14,c1cncc(-c2nc(NC3CCCCCCC3)c3ccccc3n2)c1 [compound 76],28 nM
15,CC1CCC(Nc2nc(-c3cccnc3)nc3ccccc23)CC1 (stereo not drawn) [compound 77],20 nM
16,c1cncc(-c2nc(NC3CC4CCC3C4)c3ccccc3n2)c1 (stereo not drawn) [compound 78],355 nM
17,c1cncc(-c2nc(NC34CC5CC(CC(C5)C3)C4)c3ccccc3n2)c1 [compound 79],1120 nM
18,CC1(C)CCC(Nc2nc(-c3cccnc3)nc3ccccc23)CC1 [compound 85],460 nM
19,CC1CCCC(Nc2nc(-c3cccnc3)nc3ccccc23)C1 (stereo not drawn) [compound 86],79 nM

# Same assay, conditions: marked activator, AC50
row,Activity AC50 or IC50 (activator),Structure (SMILES)
1,Weak activator,COC(=O)CCCCCCCCC#Cc1ccc(OCCN(C)c2nc(-c3cccnc3)nc3ccccc23)cc1 [compound 109]
2,Weak activator,CN(CCOc1ccc(C#CCOCCOCCNc2nc(-c3cccnc3)nc3ccccc23)cc1)c1nc(-c2cccnc2)nc2ccccc12 [compound 110]
3,Weak activator,CN(CCOc1ccccc1)c1nc(-c2ccccn2)nc2ccccc12 [compound 143]
4,activator,CN(CCOc1ccc(C#CCCCCCCCCC(=O)ON2C(=O)CCC2=O)cc1)c1nc(-c2cccnc2)nc2ccccc12 [compound 153]

# Continued, compound first:
row,Structure (SMILES),Activity AC50 or IC50 (activator)
1,CN(c1nc(-c2cccnc2)nc2ccccc12)C1Cc2ccc(C#CCCCCCCCCC(=O)ON3C(=O)CCC3=O)cc2C1 (stereo not drawn) [compound 105],Weak activator
2,c1cncc(-c2nc(N3CCCOCC3)c3ccccc3n2)c1 [compound 116],Weak activator
3,CN(c1nc(-c2cccnc2)nc2ccccc12)C1CCCCCCC1 [compound 123],Weak activator

# Same assay, conditions: marked activator, AC50; read-out: Activity AC50 or IC50 (activator)
row,AC50,Structure (SMILES)
1,6310 nM,c1cncc(-c2nc(N3CCc4[nH]c5ccccc5c4C3)c3ccccc3n2)c1 [compound 93]
2,2820 nM,c1cncc(-c2nc(N3CCc4c([nH]c5ccccc45)C3)c3ccccc3n2)c1 [compound 94]
3,5010 nM,CN(CCCc1ccccc1)c1nc(-c2cccnc2)nc2ccccc12 [compound 119]

# Same assay, conditions: marked inhibitor
row,Activity AC50 or IC50 (inhibitor),Structure (SMILES)
1,Weak inhibitor,CN(CCOc1ccccc1)c1nc(-c2ccc(N)cc2)nc2ccccc12 [compound 144]

# Same assay, conditions: marked inhibitor, nM indicated; read-out: Activity AC50 or IC50 (inhibitor)
row,IC50,Structure (SMILES)
1,5.6 nM,CC(C)(C)OC(=O)NCCCCCC(=O)Nc1ccc(-c2nc(NC3Cc4ccccc4C3)c3ccccc3n2)cc1 [compound 145]
2,39.8 nM,CC(C)(C)OC(=O)NCCOCCOCC(=O)Nc1ccc(-c2nc(NC3Cc4ccccc4C3)c3ccccc3n2)cc1 [compound 146]
3,7.5 nM,NCCCCCC(=O)Nc1ccc(-c2nc(NC3Cc4ccccc4C3)c3ccccc3n2)cc1 [compound 147]
4,1.95 nM,O=C(CCCC[C@@H]1SC[C@@H]2NC(=O)N[C@@H]21)NCCOCCOCCOCCOCCC(=O)NCCCCCC(=O)Nc1ccc(-c2nc(NC3Cc4ccccc4C3)c3ccccc3n2)cc1 [compound 156]

# Same assay, conditions: marked inhibitor; read-out: Activity AC50 or IC50 (inhibitor)
row,IC50,Structure (SMILES)
1,2820 nM,c1ccc(OCCCNc2nc(-c3cccnc3)nc3ccccc23)cc1 [compound 91]
2,5010 nM,CC(CNc1nc(-c2cccnc2)nc2ccccc12)Oc1ccccc1 (stereo not drawn) [compound 92]
3,2510 nM,CC(COc1ccccc1)Nc1nc(-c2cccnc2)nc2ccccc12 (stereo not drawn) [compound 97]
4,891 nM,NCCC#Cc1ccc2c(c1)CC(Nc1nc(-c3cccnc3)nc3ccccc13)C2 (stereo not drawn) [compound 99]
5,178 nM,Brc1ccc2c(c1)CC(Nc1nc(-c3cccnc3)nc3ccccc13)C2 (stereo not drawn) [compound 100]
6,11200 nM,c1ccc(COCCNc2nc(-c3cccnc3)nc3ccccc23)cc1 [compound 140]
7,11200 nM,CN(CCOCc1ccccc1)c1nc(-c2cccnc2)nc2ccccc12 [compound 141]
8,7.1 nM,Nc1ccc(-c2nc(NC3Cc4ccccc4C3)c3ccccc3n2)cc1 [compound 142]

# Continued, compound first:
row,Structure (SMILES),IC50
1,CCCCCCCCNc1nc(-c2cccnc2)nc2ccccc12 [compound 95],2240 nM
2,CC(C)(C)OC(=O)NCCC#Cc1ccc2c(c1)CC(Nc1nc(-c3cccnc3)nc3ccccc13)C2 (stereo not drawn) [compound 96],560 nM
3,Oc1ccc2c(c1)C[C@@H](Nc1nc(-c3cccnc3)nc3ccccc13)CC2 [compound 98],79 nM
4,c1cncc(-c2nc(NCCCCCCCCCCNc3nc(-c4cccnc4)nc4ccccc34)c3ccccc3n2)c1 [compound 108],141 nM
